# Source: PubChem BioAssay AID2060348 (Molecular Pharmacology Branch, DTP, NCI, 2025)
# System: 885724-159-R-J1-PDC spheroids viability
# Assay: Anticancer human tumor 885724-159-R-J1-PDC patient-derived pancreatic adenocarcinoma cell line growth inhibition [TAK]
# Settings: spheroids with HUVEC and MSC; for IC50: curve of first compound; for viability, T/C: stronger effect = lower value
# Description: Combinatorial screen of targeted agents with TAK-243 and ipatasertib in multi-cell type tumor spheroids
# A high-throughput screen of multi-cell type tumor spheroids was designed to identify active combinations of targeted small molecules and TAK-243 or ipatasertib. Complex spheroids include a stromal component modeled by human endothelial cells (HUVEC) and fibroblasts modeled by human mesenchymal stem cells (MSCs). The concentration ranges selected for each drug and investigational agent were based upon clinically achievable concentrations if the clinical Cmax of the agent was known.
# Compounds. The drugs and investigational agents: TAK-243 (785004), ipatasertib (767898), everolimus (733504), selumetinib (741078), bortezomib (756655), trametinib (758246), ixazomib (758254), vemurafenib (761431), dabrafenib (764134), sapanisertib (764658), alpelisib (765974), and copanlisib (816437), were obtained from the National Cancer Institute (NCI) Developmental Therapeutics Program Chemical Repository. The FDA-approved anticancer drug set is available from the NCI Developmental Therapeutics Program. […] The stock solutions were prepared in dimethyl sulfoxide (DMSO, Sigma-Aldrich, St. Louis, MO, cat. D2650) at 800-fold the tested concentration and stored at -70 degrees C prior to their use. All drugs and investigational agents were tested over a range starting from a high concentration at or near the clinical Cmax and decreasing in half-log increments. If the clinical Cmax for an agent had not been determined, the highest concentration tested was 10 microM.
# NCI60 Cell Culture. NCI60 cell lines were obtained from the NCI Developmental Therapeutics Program Tumor Repository. For each lot of cells, the Repository performed Applied Biosystems AmpFLSTR Identifiler testing with PCR amplification to confirm consistency with the published Identifier STR profile for each cell line. Cells were kept in continuous culture for no more than 20 passages. The optimal seeding densities for each of the cell lines at each time point assessed were determined prior to performing the concentration response studies. Briefly, the NCI60 human tumor lines were grown as monolayers in RPMI 1640 medium supplemented with 10% FBS and 2 mmol/L L-glutamine.
# An additional 2 lines were from the NCI60 cell line panel including melanomas, MALME-3M and SK-MEL-2. Pooled donor human umbilical vein endothelial cells (HUVEC, Lonza, cat. CC-2519) and human mesenchymal stem cells (hMSC, Lonza, cat. PT-2501) were purchased from Lonza (Walkersville, MD).
# PDMR cell lines were grown in complete medium (DC medium): Dulbecco's modified Eagle's medium (DMEM)/F12 supplemented with 5% fetal bovine serum (FBS), 2 mM L-glutamine, 100 U/mL penicillin and 100 µg/ml streptomycin, 0.4 µg/ml hydrocortisone, 10 ng/ml epidermal growth factor (EGF) recombinant human protein, 24 µg/mL adenine, and 0.1 mg/mL primocin. During culture from frozen stock vials, PDMR cells were cultured in the same medium containing 10 µM Y-27632 (see Table 3). The PDCs were cultured in complete DMEM/F12 media without 10 microM Y-27632 dihydrochloride for at least two passages prior to the screen. The pooled donor HUVEC and hMSC were cultured in endothelial cell growth medium 2 (PromoCell, Heidelberg, Germany, cat. C-22011) and mesenchymal stem cell growth medium 2 (PromoCell, cat. C-28009), respectively. For all experiments, HUVEC and hMSC were used at passages </=5.
# For the pre-screen, cell seeding densities were determined from a titration spanning the range from 5,000 to 313 cells per well. The mct-spheroids including 60% malignant cells, 25% HUVEC and 15% MSC dispensed as a mixture into U-bottom Ultra-Low Attachment 384-well plates (Corning, NY)
# High-throughput Drug Combination Screening.
# Prior to their inoculation into 384-well plates, malignant cells, HUVEC, and hMSC were removed from T flasks using TrypLE express (Thermo Fisher Scientific, cat. 12605036) and harvested by centrifugation for 5 min at 233 x g. […]
# 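Note: spheroids exposed to drugs for seven days.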
# 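Throughout, for viability, T/C: 100% = DMSO vehicle control viability.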
smiles,measurement,setting,value
CC(=O)Nc1cccc(-n2c(=O)n(C3CC3)c(=O)c3c(Nc4ccc(I)cc4F)n(C)c(=O)c(C)c32)c1 + CC(C)NCC(C(=O)N1CCN(c2ncnc3c2C(C)CC3O)CC1)c1ccc(Cl)cc1,IC50,second compound 0.3 µM,0.357 nM
same,IC50,second compound 0.949 µM,0.148 nM
same,IC50,second compound 3 µM,0.118 nM
same,IC50,second compound 9.49 µM,< 0.0949 nM
same,IC50,second compound 30 µM,< 0.0949 nM
same,"viability, T/C","second compound 0.3 µM, first compound 94.9 pM",62.1%
same,"viability, T/C","second compound 0.3 µM, first compound 0.0003 µM",52.4%
same,"viability, T/C","second compound 0.3 µM, first compound 0.000949 µM",39.4%
same,"viability, T/C","second compound 0.3 µM, first compound 0.003 µM",29.7%
same,"viability, T/C","second compound 0.3 µM, first compound 0.00949 µM",19.8%
same,"viability, T/C","second compound 0.3 µM, first compound 0.03 µM",12.7%
same,"viability, T/C","second compound 0.949 µM, first compound 94.9 pM",51.8%
same,"viability, T/C","second compound 0.949 µM, first compound 0.0003 µM",46.9%
same,"viability, T/C","second compound 0.949 µM, first compound 0.000949 µM",39.5%
same,"viability, T/C","second compound 0.949 µM, first compound 0.003 µM",26.4%
same,"viability, T/C","second compound 0.949 µM, first compound 0.00949 µM",16.5%
same,"viability, T/C","second compound 0.949 µM, first compound 0.03 µM",9.03%
same,"viability, T/C","second compound 3 µM, first compound 94.9 pM",50.9%
same,"viability, T/C","second compound 3 µM, first compound 0.0003 µM",47%
same,"viability, T/C","second compound 3 µM, first compound 0.000949 µM",37.3%
same,"viability, T/C","second compound 3 µM, first compound 0.003 µM",27.7%
same,"viability, T/C","second compound 3 µM, first compound 0.00949 µM",12.6%
same,"viability, T/C","second compound 3 µM, first compound 0.03 µM",7.15%
same,"viability, T/C","second compound 9.49 µM, first compound 94.9 pM",42.9%
same,"viability, T/C","second compound 9.49 µM, first compound 0.0003 µM",39.1%
same,"viability, T/C","second compound 9.49 µM, first compound 0.000949 µM",31.9%
same,"viability, T/C","second compound 9.49 µM, first compound 0.003 µM",20.5%
same,"viability, T/C","second compound 9.49 µM, first compound 0.00949 µM",9.73%
same,"viability, T/C","second compound 9.49 µM, first compound 0.03 µM",4.47%
same,"viability, T/C","second compound 30 µM, first compound 94.9 pM",29.2%
same,"viability, T/C","second compound 30 µM, first compound 0.0003 µM",23.4%
same,"viability, T/C","second compound 30 µM, first compound 0.000949 µM",15.1%
same,"viability, T/C","second compound 30 µM, first compound 0.003 µM",6.5%
same,"viability, T/C","second compound 30 µM, first compound 0.00949 µM",4.94%
same,"viability, T/C","second compound 30 µM, first compound 0.03 µM",2.14%
CC(C)CC(NC(=O)C(Cc1ccccc1)NC(=O)c1cnccn1)B(O)O (stereo not given) + CC(C)NCC(C(=O)N1CCN(c2ncnc3c2C(C)CC3O)CC1)c1ccc(Cl)cc1,IC50,second compound 0.3 µM,3.48 nM
same,IC50,second compound 0.949 µM,1.44 nM
same,IC50,second compound 3 µM,1.28 nM
same,IC50,second compound 9.49 µM,0.572 nM
same,IC50,second compound 30 µM,< 0.0316 nM
same,"viability, T/C","second compound 0.3 µM, first compound 31.6 pM",77.5%
same,"viability, T/C","second compound 0.3 µM, first compound 0.0001 µM",68.6%
same,"viability, T/C","second compound 0.3 µM, first compound 0.000316 µM",68.7%
same,"viability, T/C","second compound 0.3 µM, first compound 0.001 µM",68.1%
same,"viability, T/C","second compound 0.3 µM, first compound 0.00316 µM",55%
same,"viability, T/C","second compound 0.3 µM, first compound 0.01 µM",0.97%
same,"viability, T/C","second compound 0.949 µM, first compound 31.6 pM",60.3%
same,"viability, T/C","second compound 0.949 µM, first compound 0.0001 µM",64.1%
same,"viability, T/C","second compound 0.949 µM, first compound 0.000316 µM",59%
same,"viability, T/C","second compound 0.949 µM, first compound 0.001 µM",65.8%
same,"viability, T/C","second compound 0.949 µM, first compound 0.00316 µM",23.7%
same,"viability, T/C","second compound 0.949 µM, first compound 0.01 µM",1.29%
same,"viability, T/C","second compound 3 µM, first compound 31.6 pM",58.1%
same,"viability, T/C","second compound 3 µM, first compound 0.0001 µM",58.9%
same,"viability, T/C","second compound 3 µM, first compound 0.000316 µM",58.7%
same,"viability, T/C","second compound 3 µM, first compound 0.001 µM",57.9%
same,"viability, T/C","second compound 3 µM, first compound 0.00316 µM",20.6%
same,"viability, T/C","second compound 3 µM, first compound 0.01 µM",0.95%
same,"viability, T/C","second compound 9.49 µM, first compound 31.6 pM",48.1%
same,"viability, T/C","second compound 9.49 µM, first compound 0.0001 µM",54.8%
same,"viability, T/C","second compound 9.49 µM, first compound 0.000316 µM",50.5%
same,"viability, T/C","second compound 9.49 µM, first compound 0.001 µM",49%
same,"viability, T/C","second compound 9.49 µM, first compound 0.00316 µM",21.1%
same,"viability, T/C","second compound 9.49 µM, first compound 0.01 µM",0.94%
same,"viability, T/C","second compound 30 µM, first compound 31.6 pM",31%
same,"viability, T/C","second compound 30 µM, first compound 0.0001 µM",38.5%
same,"viability, T/C","second compound 30 µM, first compound 0.000316 µM",33.7%
same,"viability, T/C","second compound 30 µM, first compound 0.001 µM",34.5%
same,"viability, T/C","second compound 30 µM, first compound 0.00316 µM",14.8%
same,"viability, T/C","second compound 30 µM, first compound 0.01 µM",0.56%
